Entries after “also recorded” stand apart in the source; their conditions may differ.
Legend:
Rab12 phosphorylation [1] = experiment: Rab12 phosphorylation in PC12 cells, Ion/TPA- or rotenone-treated (western blot); type: cell-based
Description: Cells that were incubated in the absence of rotenone were then left untreated or incubated with a combination of 1 μM 4-bromo-calcium ionophore A23187 (Ion) and 50 nM of the phorbol ester (TPA) for 30 minutes at 37° C. Cells were then washed three times with PBS, lysed with lysis buffer containing phosphatase inhibitors and cell lysates analysed by western blotting with anti phosphoRab12 antibodies followed by re-probing with anti GAPDH antibodies. […] The results are the fold increase in Rab12 phosphorylation based on the ratio of phosphorylated Rab12 to GAPDH.
Samples were separated by SDS-PAGE using 10-12% polyacrylamide gels and electrophoretically transferred to nitrocellulose membranes. Blots were blocked for 20 min in TBST (10 mM Tris-HCl, pH 8.0, 150 mM NaCl, and 0.05% Tween 20) containing 5% skim-milk, followed by overnight incubation at 4° C. with the desired primary Abs. Blots were washed three times and incubated for 1 hour at room temperature with HRP-conjugated secondary Ab. Immunoreactive bands were visualized by the ECL method according to standard procedures. The intensity of the immunoreactive bands was quantified using ImageJ software.
For Rab12 phosphorylation in PC12 cells, cells were grown for 48 hours either in growth medium or in medium supplemented with 1 μM LY333531 or 10 μM GSK2578215A in the absence or presence of 100 nM rotenone. For Ion/TPA-stimulated phosphorylation, cells grown in medium only or medium containing inhibitors, were stimulated with 1 μM 4-bromo-calcium ionophore A23187 (Ion) and 50 nM of the phorbol ester (TPA) for 30 minutes. Cells were processed as above.

Rab12 phosphorylation [2] = experiment: Rab12 phosphorylation in Ion/TPA-activated BMMCs with inhibitors (western blot); type: cell-based, mouse; conditions: 1 μM inhibitor, 30 min pre-incubation, then Ion/TPA 30 min
Description: BMMCs were seeded in 10 cm plates overnight in growth medium or medium containing 400 nM TPA. Next day cells were collected and washed three times with Tyrode's buffer in Eppendorf tubes. Cells were subsequently incubated for 30 minutes at 37° C. with vehicle (0.1% DMSO) or with 10 μM GSK2578215A (GSK), 1 μM Go6976, 2 mM EGTA or 1 μM MRT68921, as indicated. Cells were then left untreated (UT) or treated for additional 30 minutes at 37° C., with a combination of 1 μM 4-bromo-calcium ionophore A23187 (Ion) and 50 nM of the phorbol ester (TPA), in the absence or presence of the inhibitors. Cells were then washed three times with PBS, lysed with lysis buffer containing phosphatase inhibitors and cell lysates analysed by western blotting with anti phosphoRab12 antibodies followed by reprobing with anti Rab12 antibodies. A representative blot is shown.
The results are the relative ratio of phosphorylated to total Rab12. […]
Samples were separated by SDS-PAGE using 10-12% polyacrylamide gels and electrophoretically transferred to nitrocellulose membranes. […] The intensity of the immunoreactive bands was quantified using ImageJ software.
Cells (RBL, BMMCs or SH-SY5Y) were grown overnight in growth medium or medium containing 400 nM TPA, where indicated. […] Cells were then washed with PBS and lysed for 30 minutes in lysis buffer D. Cell lysates were analyzed by western blotting. […]

[3] = target: T1, Rab12 interaction with RILP (Mus musculus, UniProt Q5ND29); experiment: Peptide inhibition of Rab12 pulldown by GST-RILP from RBL cell lysates; type: binding, rat; conditions: 100 μM peptide, 4 h at 4° C., then RBL cell lysate overnight
T1 construct: made in house
T1 sequence (Q5ND29 1-369): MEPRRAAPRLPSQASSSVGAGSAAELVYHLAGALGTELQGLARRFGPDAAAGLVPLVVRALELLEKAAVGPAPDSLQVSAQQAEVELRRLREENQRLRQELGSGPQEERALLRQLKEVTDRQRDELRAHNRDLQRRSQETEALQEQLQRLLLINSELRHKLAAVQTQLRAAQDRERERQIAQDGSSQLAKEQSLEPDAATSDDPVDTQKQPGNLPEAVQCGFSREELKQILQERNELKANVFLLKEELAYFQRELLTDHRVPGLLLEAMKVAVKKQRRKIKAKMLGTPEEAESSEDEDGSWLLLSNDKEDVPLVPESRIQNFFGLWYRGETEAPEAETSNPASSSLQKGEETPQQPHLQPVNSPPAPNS
Description: At the end of the incubation period, beads were sedimented by centrifugation at 5000×g for 5 min at 4° C., washed four times with 50 mM Hepes pH 7.4, 150 mM NaCl, 1 mM MgCl2, 0.2% Triton X-100, protease inhibitor mixture, 1 mM PMSF, 2 mM Na3VO4, 10 mM NaPPi and 80 mM β-glycerophosphate and suspended in 1× sample buffer and boiled for 7 minutes. Proteins were resolved by SDS-PAGE and analyzed by immunoblotting with anti Rab12 antibodies. […] The results are the average pulldown±SEM derived from two independent experiments.
Pulldown assays were performed as previously described 2. Briefly, 20 μg of GST fusion proteins or control GST immobilized on Glutathione Agarose beads were incubated for 18 hours at 4° C. with RBL cell lysates (500 μg) prepared in buffer C (50 mM Hepes pH 7.4, 150 mM NaCl, 1 mM MgCl2, 1% TritonX100, 1 mM PMSF, protease inhibitor mixture, 2 mM Na3VO4) in the presence of 0.5 mM GTPγS. At the end of the incubation period, beads were sedimented by centrifugation at 5000×g for 5 minutes at 4° C., washed 4 times in buffer C with 0.2% TritonX100, and finally suspended in sample buffer, boiled for 7 minutes, and subjected to SDS-PAGE and immunoblotting. […]

PC12 cells = experiment: SG distribution, cell morphology and primary cilia in PC12 cells expressing CA Rab12 (confocal microscopy); type: cell-based
Description: Cells (4×10^4 cells/well) were seeded onto 12 mm round glass coverslips in a 24-well plate. Next day, cells were transiently co-transfected using lipofectamine 2000 with 500 ng of plasmid encoding NPY-mRFP and 1000 ng of pEGFP-C1-Rab12(Q100L), a GTP-locked, constitutively active mutant of Rab12 (herein: CA Rab12). After transfection, cells were either left untreated (UT) or incubated for 48 hours at 37° C. with 100 nM rotenone. After 48 hours, cells were incubated for an additional hour at 37° C. with or without 100 μM of TAT-125 peptide (i.e. […], SEQ ID NO: 14), as indicated. Cells were then fixed and immunostained with polyclonal antibodies directed against Arl13b (primary cilium marker), followed by Hilyte Plus 647-conjugated goat anti-rabbit IgG. Cells were visualized by confocal microscopy. The right panels are the overlap of the confocal images on the corresponding brightfield.
RBL cells (4×10^5 cells/well) or PC12 cells (4×10^4 cells/well) were grown on 12-mm round glass coverslips, washed three times with PBS, and fixed for 20 min at room temperature with 4% paraformaldehyde in PBS. […] After washing, the cells were mounted (Golden Bridge Life Science, Mukilteo City, WA) and analyzed using a LEICA SP8 STED high resolution laser scanning confocal microscope (Leica, Wetzlar, Germany) using a 63 oil/1.4 numerical aperture objective. […]

[4] = target: T2, endogenous Rab12 of RBL cells (rat, UniProt P35284 49-291, limits assumed); experiment: GST pulldown of endogenous Rab12 from resting RBL cell lysates, anti-Rab12 immunoblot
T2 construct: Total Rab12 pulled down from cell lysates (blot reprobed with anti-Rab12)
T2 sequence (looked up): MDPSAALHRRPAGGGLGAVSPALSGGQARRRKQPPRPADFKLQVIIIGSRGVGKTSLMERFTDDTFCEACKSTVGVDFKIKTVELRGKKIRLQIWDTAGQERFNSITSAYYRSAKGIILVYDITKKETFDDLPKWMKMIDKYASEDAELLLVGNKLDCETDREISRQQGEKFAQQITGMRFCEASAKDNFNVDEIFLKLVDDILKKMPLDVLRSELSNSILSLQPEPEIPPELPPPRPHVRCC
Description: Cells were then lysed and 500 μg of cell lysate were incubated overnight at 4° C. with either GST, GST-RILP, GST-RILP-L1 or GST-RILP-L2, immobilized on glutathione agarose beads, as indicated. At the end of the incubation period, beads were sedimented by centrifugation at 5000×g for 5 minutes at 4° C., washed four times with buffer containing 50 mM Hepes pH 7.4, 150 mM NaCl, 1 mM MgCl₂, 0.2% Triton X-100, protease inhibitor mixture, 1 mM PMSF, 2 mM Na₃VO₄, 10 mM NaPPi and 80 mM β-glycerophosphate and suspended in 1× sample buffer and boiled for 7 minutes. Proteins were resolved by SDS-PAGE and analyzed by immunoblotting with the anti-phosphoRab12 antibodies, followed by reprobing with anti Rab12 antibodies, as indicated. Representative blots are shown. Similar results were obtained in two separate experiments.
Next, it was assessed whether […] any impact on Rab12 interactions with its RILP family effectors. To this end, lysates derived from resting RBL cells or RBL cells that were triggered with either IgE/Ag or Ion/TPA, were subjected to pulldown assays by chimeric proteins consisting of GST-fused to either RILP, RILP-L1, or RILP-L2, or control GST. […] Therefore, under these conditions, the efficacy of Rab12-effector interactions was RILP-L1>RILP>>>RILP-L2.

O=C(Nc1cccnc1)c1cc(-c2ccnc(F)c2)ccc1OCc1ccccc1 [GSK2578215A]
rotenone-induced phosphorylation of Rab12 (Rab12 phosphorylation [1]; 100 nM rotenone 48 h with 1 μM LY333531 or 10 μM GSK2578215A): significantly inhibited | Ion/TPA-induced phosphorylation of Rab12 (Rab12 phosphorylation [1]; 1 μM LY333531 or 10 μM GSK2578215A 48 h, Ion/TPA 30 min): resistant

Cn1c2ccccc2c2c3c(c4c5ccccc5n(CCC#N)c4c21)CNC3=O [Go6976]
Ion/TPA-stimulated phosphorylation of Rab12 (Rab12 phosphorylation [2]): significantly inhibited

CN1CCc2cc(Nc3ncc(C4CC4)c(NCCCNC(=O)C4CCC4)n3)ccc2C1 [MRT68921]
Ion/TPA-stimulated phosphorylation of Rab12 (Rab12 phosphorylation [2]): significantly inhibited

C=C(C)[C@H]1Cc2c(ccc3c2O[C@@H]2COc4cc(OC)c(OC)cc4[C@@H]2C3=O)O1 [rotenone]
induction of Rab12 phosphorylation (Rab12 phosphorylation [1]; Ion/TPA 30 min or 100 nM rotenone 48 h): induced

EACKSTVGVDFKIKT [peptide Rab125, human Rab12 residues 69-83]
pulldown of Rab12 by GST-RILP [3]: could inhibit

ERFNSITSAYYRSAK [peptide Rab121, human Rab12 residues 102-116]
pulldown of Rab12 by GST-RILP [3]: could inhibit

YGRKKRRQRRRGGEACKSTVGVDFKIKT [TAT-125, cell permeable version of peptide 125]
cellular distribution of the SGs (Rab12-RILP interaction in intact cells) (PC12 cells; PC12 cells expressing CA Rab12 and NPY-mRFP, 100 μM TAT-125): partial scattering of the clustered SGs | cell morphology and primary cilia of rotenone treated cells (PC12 cells; PC12 cells, 100 nM rotenone 48 h, then 100 μM TAT-125): improves the cell morphology; also recorded: regained their normal appearance and size

B1: GST-RILP-L1 (pGEX-4T-3-RILP-L1) (other, mouse, UniProt Q9JJC6 1-406, looked up)
chain: MEEPLGSPPAALSALEKNVAELTVMDVYDIASLVGHEFERVIDQHGCESIARLMPKVVRVLEILEVLVSRHHVAPELDELRLELDRLRVERMDRIEKERKHQKELELVEDVWRGEAQDLLSQIAQLQEENKQLMTNLNHKDVGFSEEEFQKQEGMSERERQVMKRLKEVVDKQRDELRAKDRELGLKNEDVEALQQQQTRLMKINHDLRHRVTVVEAQGKALIEQKVELEADLQTKEQEMGSLRAELGKLRERLQGEHSQNGEEEEAEIQPQPDGEESISDAEKAALDLKDPNRPRFTLQELRDVLHERNELKSKVFLLQEELAYYKSEEIEEENRIPQPPPITHPRTSPQPESGIKRLFSFFSRDKKRLANTQRPTHIHESFGQWAITQRDDGYTEQGQEALQHL
notes: Immobilized on glutathione agarose beads; not shown: glutathione S-transferase (GST) encoded by the pGEX-4T-3 vector
fold pulldown efficacy against GST-RILP [4]: 3 fold | fold pulldown efficacy against GST-RILP-L2 [4]: 9 fold
